The source of these data is patent publication US5674906A, “Stilbene compounds and pharmaceutical compositions containing them” (Ajinomoto Co., Inc., priority 1995, dated 1997).

By inhibition in vivo is commonly meant the drop in the measured response relative to a control, in per cent.

SMILES strings stand for the structures. In brackets after ≈: the same amount, converted by molar mass. Structures can show the parent of a compound that is named as a salt. Where two headings read alike, the source gives them in different places.

The test system of data set [1] is Mouse P388 leukemia cells. The data set is described as follows: Evaluation of cytotoxicity: growth inhibition of mouse P388 leukemia cells (MTT method). The note with it: 48 h, 37° C., 2 days, read-out: in vitro IC50 (50% growth inhibitory concentration). Type of data set: cell-based. As for the experimental part:
Evaluation of Cytotoxicity:
Mouse P388 leukemia cells were used as cancer cells, and a RPMI-1640 medium containing 5-μM 2-mercaptoethanol and 10% fetal bovine serum was used in the incubation. The above-mentioned cells were inoculated on a 96-well microplate in an amount of 1×10^4 cells/50 μl/well, and an aqueous solution of a test compound (4 μg/ml) was added thereto in an amount of 25 μl/well. The mixture was incubated at 37° C. for 2 days. Then, the number of live cells were counted using the MTT method, and a dose-response curve was then prepared. A 50% growth inhibitory concentration (IC50) given for the test compound was calculated according to the dose-response curve.

Data set [2] relates to Colon 26. The data set is described as follows: Test for the pharmaceutical effect on mice: tumor growth inhibition of subcutaneously implanted Colon 26. Conditions: Mus musculus, Colon 26, iv, 504 h, read-out: in vivo I.R. (tumor growth inhibition rate). As for the experimental part:
Test for the Pharmaceutical Effect on Mice:
Colon 26 which had been cloned subcutaneously in mice was cut with scissors, and implanted subcutaneously in mice by means of a trocar. One week later, the tumors were measured using calipers, and the volumes of the tumors were calculated. The mice were grouped (each group consisting of 3 mice). The test compound was dissolved with dimethylsulfoxide and diluted with 5% by volume Tween 80/saline. A 0.2 ml of the solution was injected intravenously once a day on Day 7, Day 11 and Day 15 after the implantation. On Day 21 after the implantation, the volumes of the tumors were measured. The volume of the tumor and the tumor growth inhibition rate (I.R.) were calculated using the following expressions. [formula]
^a) Administered intravenously once a day on day 7, day 11 and day 15

The nature of data set [3]: Minimum dose which shows death immediately after injection (toxic dose). Type of data set: in vivo, mice. The note with it: acute death immediately after injection.
[4] abbreviates: 10 mg/kg, intravenously once a day on day 7, day 11 and day 15, tumor volume on Day 21.
[5] abbreviates: 40 mg/kg, intravenously once a day on day 7, day 11 and day 15, tumor volume on Day 21.
The mark [6] stands for this setting: 80 mg/kg, intravenously once a day on day 7, day 11 and day 15, tumor volume on Day 21.

As to `COc1ccc(/C=C(/C#N)c2cc(OC)c(OC)c(OC)c2)cc1NC(=O)[C@H](C)N` [(E)-3-(3-Amino-4-methoxyphenyl)-2-(3,4,5-trimethoxyphenyl)-prop-2-enenitrile-L-alanineamide Hydrochloride], the IC50 in data set [1] was found to be 0.5 ng/mL. Moreover, in data set [2] (20 mg/kg, intravenously once a day on day 7, day 11 and day 15, tumor volume on Day 21), the inhibition in vivo at 20 mg/kg was 71%. Also, the “Toxic Dose (minimum dose which show death immediately after injection)” value (“Toxic Dose” below) in data set [3] is on record as 80 mg/kg.

`COc1ccc(/C=C(/C#N)c2cc(OC)c(OC)c(OC)c2)cc1NC(=O)[C@@H](N)CC(=O)O` [(E)-3-(3-Amino-4-methoxyphenyl)-2-(3,4,5-trimethoxyphenyl)-prop-2-enenitrile-L-aspartylamide Hydrochloride]: in data set [1], the IC50 amounted to 2 ng/mL. Besides, in data set [2] (setting [4]), the inhibition in vivo at 10 mg/kg amounted to 1.7%. Besides, the “Toxic Dose” value in data set [3] came to 40 mg/kg.

For `COc1ccc(/C=C(/C#N)c2cc(OC)c(OC)c(OC)c2)cc1NC(=O)[C@@H](N)CCC(=O)O` [(E)-3-(3-Amino-4-methoxyphenyl)-2-(3,4,5-trimethoxyphenyl)-prop-2-enenitrile-L-glutamylamide Hydrochloride], the IC50 in data set [1] came out at 4 ng/mL. The inhibition in vivo at 40 mg/kg in data set [2] (setting [5]) was 77%. Moreover, in data set [3], the “Toxic Dose” value is listed as 80 mg/kg.

In the case of `COc1ccc(/C=C(/C#N)c2cc(OC)c(OC)c(OC)c2)cc1NC(=O)[C@@H](N)CCCCN` [(E)-3-(3-Amino-4-methoxyphenyl)-2-(3,4,5-trimethoxyphenyl)-prop-2-enenitrile-L-lysineamide Dihydrochloride], the IC50 in data set [1] stood at 13 ng/mL. Further, in data set [2] (setting [4]), the inhibition in vivo at 10 mg/kg came out at 33.8%. In addition, the “Toxic Dose” value in data set [3] was found to be 20 mg/kg.

On to `COc1ccc(/C=C(/C#N)c2cc(OC)c(OC)c(OC)c2)cc1NC(=O)[C@@H](N)CCCN` [(E)-3-(3-Amino-4-methoxyphenyl)-2-(3,4,5-trimethoxyphenyl)-prop-2-enenitrile-L-ornithineamide Dihydrochloride], for which the IC50 in data set [1] amounted to 50 ng/mL. The inhibition in vivo at 10 mg/kg in data set [2] was determined as 48.9%.

Regarding `COc1ccc(/C=C(/C#N)c2cc(OC)c(OC)c(OC)c2)cc1NC(=O)[C@@H](N)Cc1ccccc1` [(E)-3-(3-Amino-4-methoxyphenyl)-2-(3,4,5-trimethoxyphenyl)-prop-2-enenitrile-L-phenylalanineamide Hydrochloride], the IC50 in data set [1] came out at 5 ng/mL. Besides, the inhibition in vivo at 40 mg/kg in data set [2] (setting [5]) turned out to be 76.7%. For the same compound, the “Toxic Dose” value in data set [3] is 80 mg/kg.

For the compound `COc1ccc(/C=C(/C#N)c2cc(OC)c(OC)c(OC)c2)cc1NC(=O)[C@@H]1CCCN1` [(E)-3-(3-Amino-4-methoxyphenyl)-2-(3,4,5-trimethoxyphenyl)-prop-2-enenitrile-L-prolineamide Hydrochloride], in data set [1], the IC50 worked out at 200 ng/mL. Further, in data set [2] (setting [5]), the inhibition in vivo at 40 mg/kg is 68.9%. Besides, the “Toxic Dose” value in data set [3] came to 40 mg/kg.

On to `COc1ccc(/C=C(/C#N)c2cc(OC)c(OC)c(OC)c2)cc1NC(=O)[C@@H](N)CO` [(E)-3-(3-Amino-4-methoxyphenyl)-2-(3,4,5-trimethoxyphenyl)-prop-2-enenitrile-L-serineamide Hydrochloride], for which, in data set [1], the IC50 was 2 ng/mL. Besides, the inhibition in vivo at 80 mg/kg in data set [2] (setting [6]) was 75%.

Regarding `COc1ccc(/C=C(/C#N)c2cc(OC)c(OC)c(OC)c2)cc1NC(=O)[C@@H](N)[C@@H](C)O` [(E)-3-(3-Amino-4-methoxyphenyl)-2-(3,4,5-trimethoxyphenyl)-prop-2-enenitrile-L-threonineamide Hydrochloride], in data set [1], the IC50 is 6 ng/mL. For the same compound, in data set [2] (setting [5]), the inhibition in vivo at 40 mg/kg turned out to be 67%.

For `COc1ccc(/C=C(/C#N)c2cc(OC)c(OC)c(OC)c2)cc1NC(=O)CN` [(E)-3-(3-Amino-4-methoxyphenyl)-2-(3,4,5-trimethoxyphenyl)-prop-2-enenitrile-glycineamide Hydrochloride], the IC50 in data set [1] was 3 ng/mL. For the same compound, the inhibition in vivo at 20 mg/kg in data set [2] was found to be 85.7%. Moreover, the “Toxic Dose” value in data set [3] stood at 40 mg/kg.

Consider `COc1ccc(/C=C\c2cc(OC)c(OC)c(OC)c2)cc1NC(=O)[C@H](C)N` [(Z)-1-(3-Amino-4-methoxyphenyl)-2-(3,4,5-trimethoxyphenyl)-ethene-L-alanineamide], for which, in data set [1], the IC50 was found to be 2 ng/mL (≈ 5.18 nM). In data set [2], the inhibition in vivo at 40 mg/kg is 51.9%. Besides, the “Toxic Dose” value in data set [3] was 80 mg/kg.

In the case of `COc1ccc(/C=C\c2cc(OC)c(OC)c(OC)c2)cc1NC(=O)[C@@H](N)CC(C)C` [(Z)-1-(3-Amino-4-methoxyphenyl)-2-(3,4,5-trimethoxyphenyl)-ethene-L-leucineamide], in data set [1], the IC50 worked out at 6 ng/mL (≈ 14 nM). The inhibition in vivo at 40 mg/kg in data set [2] stood at 50.9%. Moreover, in data set [3], the “Toxic Dose” value was determined as 40 mg/kg.

Take `COc1ccc(/C=C\c2cc(OC)c(OC)c(OC)c2)cc1NC(=O)[C@@H](N)CO` [(Z)-1-(3-Amino-4-methoxyphenyl)-2-(3,4,5-trimethoxyphenyl)-ethene-L-serineamide]: the IC50 in data set [1] came to 4 ng/mL (≈ 9.94 nM). The inhibition in vivo at 80 mg/kg in data set [2] (setting [6]) was found to be 72.9%.

In the case of `COc1ccc(/C=C\c2cc(OC)c(OC)c(OC)c2)cc1NC(=O)[C@@H](N)[C@@H](C)O` [(Z)-1-(3-Amino-4-methoxyphenyl)-2-(3,4,5-trimethoxyphenyl)-ethene-L-threonineamide], the IC50 in data set [1] was 6 ng/mL (≈ 14.4 nM). The inhibition in vivo at 80 mg/kg in data set [2] was determined as 62.2%.

Take `COc1ccc(/C=C\c2cc(OC)c(OC)c(OC)c2)cc1NC(=O)CN` [(Z)-1-(3-Amino-4-methoxyphenyl)-2-(3,4,5-trimethoxyphenyl)-ethene-glycineamide]: the IC50 in data set [1] worked out at 2 ng/mL (≈ 5.37 nM). In data set [2], the inhibition in vivo at 40 mg/kg was 33.3%. Besides, in data set [3], the “Toxic Dose” value was 80 mg/kg.
